# In paper PMC8002323 (Molecules, 2021):
# “And” between values parts separate entries of the source, which are not always exact repeats. Equal entries are not always repeated.
# Experiments:
# [1] = target: T1, Aβ1–42 (Homo sapiens, UniProt P05067); test: Inhibition of self-induced Aβ1–42 aggregation (thioflavin-T fluorescence method); conditions: read-out: Aβ1–42 Aggreg. Inhib.
# Method: Inhibitory capacity of the compounds for the Aβ1–42 aggregation was assessed based on the fluorescence properties of thioflavine T (ThT), measured with a Varian Cary Eclipse spectrofluorometer.
# A previously prepared solution of Aβ1–42 was used.
# To the resulting alkaline Aβ1–42 solution was added phosphate buffer (pH 8.0). The compounds tested were diluted in MeOH (1 mg/mL) and then further diluted in phosphate buffer. Two different types of experiments were prepared in a final volume of 60 μL. The solution for the control ligand assay consists in 30 µL of phosphate buffer and 30 µL of Aβ1–42 solution, to evaluate the aggregation without any inhibition, while the solution for the ligand assay consists of 20 µL of phosphate buffer, 30 µL of Aβ1–42 solution and 10 µL of the ligand solution, to evaluate the effect of the ligand in the aggregation. For each experiment a blank sample, without Aβ1–42, is used to monitor the effect of the compounds in the fluorescence. These samples were left incubating in a water bath (CERTOMAT WR), for 24 h, at 37 °C with gentle shaking [14].
# A glycine-NaOH buffer (pH 8.5) containing ThT (5 μM) was added to each sample. Samples were placed in a microplate and the fluorescence signal was monitored at 446 nm (λexc) and 490 nm (λem) [40].
# (2) %I=100−Fi/F0× 100 where Fi and F0 are the fluorescence intensities in the presence and absence of the compound, respectively, minus the fluorescence intensities of the respective blanks. Statistical analysis was performed in Microsoft Office Excel®.
# [2] = target: T2, AChE (type VI-S, from electric eel) (Electrophorus electricus, UniProt O42275); test: biochemical; assay type: biochemical; conditions: for IC50: AChE from Electric eel, mean of two independent experiments ± SD, read-out: AChE Inhib. IC50 ± SD; for AChE inhibition (in words): AChE from electric eel
# T2 construct: purchased
# T2 sequence (O42275 24-633): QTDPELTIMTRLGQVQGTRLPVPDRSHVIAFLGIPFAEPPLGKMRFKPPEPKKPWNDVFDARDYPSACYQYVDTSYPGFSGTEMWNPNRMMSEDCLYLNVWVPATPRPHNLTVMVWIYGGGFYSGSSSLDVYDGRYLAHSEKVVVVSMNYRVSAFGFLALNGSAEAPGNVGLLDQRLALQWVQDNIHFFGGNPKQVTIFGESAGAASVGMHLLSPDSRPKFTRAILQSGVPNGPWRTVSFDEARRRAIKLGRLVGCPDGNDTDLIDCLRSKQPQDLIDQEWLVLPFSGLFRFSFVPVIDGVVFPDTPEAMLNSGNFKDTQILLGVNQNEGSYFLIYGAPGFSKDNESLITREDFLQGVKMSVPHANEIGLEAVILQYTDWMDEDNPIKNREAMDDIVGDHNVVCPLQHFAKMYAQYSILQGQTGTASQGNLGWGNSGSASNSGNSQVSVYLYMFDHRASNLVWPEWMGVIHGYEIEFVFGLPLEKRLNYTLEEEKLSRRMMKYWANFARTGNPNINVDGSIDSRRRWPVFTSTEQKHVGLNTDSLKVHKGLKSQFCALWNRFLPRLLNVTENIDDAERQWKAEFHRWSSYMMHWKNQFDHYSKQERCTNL
# Method: The acetylcholinesterase inhibitory activity was assessed by an adaptation of the Ellman’s method. The assay solution contained 4-(2-hydroxyethyl)-1-piperazineethanesulfonic acid (HEPES) buffer (50 mM, pH 8.0), 5,5′-dithiobis-(2-nitrobenzoic acid) (DTNB, 3 mM), the stock solution of each compound in methanol (1 mg/mL), AChE (type VI-S, from electric eel) and the required quantity of methanol to reach the desired volume of sample mixture in a 1 mL cuvette. Samples were incubated for 15 min and then 75 μL of acetylthiocholine iodide (AThChI) solution (16 mM) was added. The reaction was monitored for 5 min at 405 nm. Assays were run with a blank containing all the reagents but AChE. Reaction rates were calculated as well as the enzyme activity. A positive control reaction was performed using methanol as a sample solution. The fraction of enzyme inhibition due to the existence of rising concentration of the test compound was calculated using Equation (1), where vi = starting reaction rate in the presence of inhibitor; vo = starting reaction rate of the control reaction. (1) %I =100−100 × […]
# The inhibition curves were achieved by plotting the percentage of enzymatic inhibition against inhibitor concentration and a calibration curve was got from which the linear regression parameters were obtained.
# [3] = system: SH-SY5Y human neuroblastoma cells; test: Dose-response screening of cell viability (MTT reduction assay); assay type: cell-based; conditions: SH-SY5Y cells treated 25 h, 2.5–50 μM
# Method: (§1) SH-SY5Y human neuroblastoma cells (ATCC-CRL-2266) (American Type Culture Collection, Manassas, Virgínia, USA) were plated in DMEM/F12 (Dulbecco’s Modified Eagle Medium/Ham’s F-12 Nutrient Mixture; Thermo Fisher Scientific) with 10% heat inactivated fetal bovine serum, 50 U/mL penicillin and 50 U/mL streptomycin under a humidified atmosphere with 95% relative humidity at 37 °C at a 0.16 × 10^6 cells/mL density. Each of the tested substances (6, 7, 8, 9) were dissolved in DMSO to prepare a stock solution at a 25 mM concentration and stored at −20 °C until further use. SH-SY5Y cells were treated for 25 h with varying concentrations of compounds, in order to select the highest non-toxic concentration. The selected concentrations for each compound were: 40 µM final concentration for 6; 15 µM final concentration for 7; 30 µM final concentration for 8 and 2.5 µM final concentration for 9. […] For the neuroprotection assays, the incubation with Aβ1–42 or L-ascorbic acid/ferrous sulphate treatment was preceded with 1 h incubation of the compounds when needed. Pre-incubation was followed by 24 h treatment of Aβ1–42 or Fe/Asc, accounting a total of 25 h. Aβ1–42 was prepared as 276.9 µM stock in sterile water and administrated in the medium at a 2.5 µM final concentration. Ferrous sulphate was freshly prepared as 0.36 M stock in water and added to the medium at 2.5 mM final concentration. L-ascorbic acid was freshly prepared as 80 mM stock in water and added to the medium at 5 mM final concentration. Aβ1–42 was purchased from Bachem (Torrance, CA, USA) and ferrous sulphate and L-ascorbic acid from Sigma Chemical Co. (St. Louis, MO, USA).
# Cellular viability was determined by employing the MTT (3-(4,5-dimethylthiazol-2-yl)-2,5-diphenyltetrazolium bromide) reduction assay, according to the Mosmann method. This colorimetric test consists in the ability of the succinate dehydrogenase enzyme from viable cells to metabolize the MTT into a formazan. In the end of treatments, cells medium was aspirated and cells were washed with 1 × PBS (phosphate-buffered saline) to remove dead cells. MTT solution (200 µL, 0.5 mg/mL) was added to each well and incubated for 2 h protected from light. Formazan precipitates were then dissolved in DMSO and absorbance measured at 570 nm. The ability to reduce MTT was expressed as a percentage of untreated, control cells.
# [4] = system: SH-SY5Y cells; test: Neuroprotective effect on Aβ42-induced toxicity (MTT reduction assay); assay type: cell-based, human; conditions: Aβ42 2.5 μM 24 h, 1 h pre-incubation; 7 (15 µM), 8 (30 µM), 9 (2.5 µM)
# Method: as §1
# Cellular viability was determined by employing the MTT (3-(4,5-dimethylthiazol-2-yl)-2,5-diphenyltetrazolium bromide) reduction assay, according to the Mosmann method. […] Formazan precipitates were then dissolved in DMSO and absorbance measured at 570 nm. The ability to reduce MTT was expressed as a percentage of untreated, control cells.
# [5] = target: T1, Aβ1–42; conditions: self-induced aggregation, literature value for DNP; ref [3],[27]; cited from earlier work
# T1 sequence (P05067 672-713 limits assumed): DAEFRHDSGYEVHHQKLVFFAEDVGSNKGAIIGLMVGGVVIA
SMILES,inhibition at 40 µM [1],IC50 [2],AChE inhibition (in words) [2],highest non-toxic concentration (selected concentration) [3],reversal of neurotoxicity induced by Aβ peptides (in words) [4],Aβ1–42 Aggreg. Inhib. [5]
"Cc1ccc(S(=O)(=O)NCCN2CCN(Cc3ccccc3)CC2)cc1 [Compound 5, N-(2-(4-benzylpiperazin-1-yl)ethyl)-4-methylbenzenesulfonamide]",41.8%,≥ 100 µM,do not show significant inhibition,–,–,–
"COc1ccc(S(=O)(=O)NCCN2CCN(Cc3ccccc3)CC2)cc1 [Compound 6, N-(2-(4-benzylpiperazin-1-yl)ethyl)-4-methoxybenzenesulfonamide]",37.2%,89 ± 9 µM,do not show significant inhibition,40 µM,–,–
"O=S(=O)(NCCN1CCN(Cc2ccccc2)CC1)c1ccc(-c2ccccc2)cc1 [Compound 7, N-(2-(4-benzylpiperazin-1yl)ethyl)-[1,1’-biphenyl]-4-sulfonamide]",34.6%,38.7 ± 0.2 µM,–,15 µM,able to relapse the neurotoxicity induced by Aβ peptides,–
"COc1ccc(S(=O)(=O)NCC2CCN(Cc3ccccc3)CC2)cc1 [Compound 8, N-((1-benzylpiperidin-4-yl)methyl)-4-methoxybenzenesulfonamide]",64.2%,1.6 to 6.2 µM and 6.2 µM,–,30 µM,more modest results in reverting neurotoxicity,–
"O=S(=O)(NCC1CCN(Cc2ccccc2)CC1)c1ccc(-c2ccccc2)cc1 [Compound 9, N-((1-benzylpiperidin-4-yl)methyl)-[1,1’-biphenyl]-4-sulfonamide]",60.7%,1.6 to 6.2 µM and 1.6 µM,–,2.5 µM,more modest results in reverting neurotoxicity,–
"COc1cc2c(cc1OC)C(=O)C(CC1CCN(Cc3ccccc3)CC1)C2 (stereo not drawn) [DNP, donepezil]",–,–,–,–,–,<5%
"Nc1c2c(nc3ccccc13)CCCC2 [Tacrine, tacrine, reference compound]",54.5%,–,–,–,–,–
